Among the data in US20030229053A1, “Compounds and methods for the treatment or prevention of flavivirus infections” (Shire BioChem Inc., priority 2001, published 2003) are IC50 values, retold here.

Each structure is given as a SMILES string.

In one assay the target is HCV NS5B RNA-dependent RNA polymerase (Hepatitis C virus genotype 1b, UniProt P26663). The assay can be described thus: In vitro RNA-dependent RNA polymerase assay (Assay 1), polyA/oligo dT, TCA precipitation. It counts as biochemical.
Sequence of HCV NS5B RNA-dependent RNA polymerase (P26663 2420-3010 limits assumed): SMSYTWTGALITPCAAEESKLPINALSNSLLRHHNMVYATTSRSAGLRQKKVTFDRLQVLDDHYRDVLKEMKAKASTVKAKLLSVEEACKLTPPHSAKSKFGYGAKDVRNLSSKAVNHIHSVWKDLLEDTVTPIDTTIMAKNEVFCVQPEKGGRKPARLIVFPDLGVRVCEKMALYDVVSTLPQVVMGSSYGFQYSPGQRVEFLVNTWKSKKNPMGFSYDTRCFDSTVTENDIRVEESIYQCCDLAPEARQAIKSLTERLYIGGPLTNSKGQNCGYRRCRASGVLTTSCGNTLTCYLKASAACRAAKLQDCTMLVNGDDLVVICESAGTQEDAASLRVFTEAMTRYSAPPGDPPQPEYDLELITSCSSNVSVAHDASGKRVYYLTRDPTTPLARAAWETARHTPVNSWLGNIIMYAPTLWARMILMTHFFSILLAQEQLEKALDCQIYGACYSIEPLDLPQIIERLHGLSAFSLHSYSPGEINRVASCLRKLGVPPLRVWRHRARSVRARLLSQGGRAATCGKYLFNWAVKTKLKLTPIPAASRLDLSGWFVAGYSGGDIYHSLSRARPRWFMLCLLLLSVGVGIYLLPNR
Conditions: not given
An outline of the steps: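 Purified NS5B (200 ng) on annealed polyA/oligo dT15 in 20 mM Tris-HCl pH 7.5, 50 mM NaCl, 5 mM MgCl2, 1 mM DTT, 15 µM cold UTP plus [32P]-UTP, 2 h at 22°C. Product TCA-precipitated, filtered onto glass-fibre and counted by liquid scintillation.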
With `O=C(O)[C@H](Cc1ccccc1)N(Cc1ccc(Br)s1)C(=O)c1ccc(Cl)cc1Cl` [compound #82, (2s)-2-[(5-Bromo-thiophen-2-ylmethyl)-(2,4-dichloro-benzoyl)-amino]-3-phenyl-propionic acid], the concentration for half-maximal inhibition (IC50) was less than 5 µM. The same measure, in the same setting: as for `O=C(O)[C@H](Cc1ccccc1)N(Cc1ccc(-c2cc3ccccc3o2)s1)C(=O)c1ccc(Cl)cc1Cl` [compound #85, (2s)-2-[(5-Benzofuran-2-yl-thiophen-2-ylmethyl)-(2,4-dichloro-benzoyl)-amino]-3-phenyl-propionic acid], the figure is less than 5 µM.

The same assay, now with this note: polyA/oligo dT template/primer, 200 ng NS5B, 2 h at 22° C.; read-out: RNA pol Assay 1 IC50 (μm).
Regarding `O=C(O)c1ccc(-c2ccc(CN(C(=O)c3ccc(Cl)cc3Cl)[C@@H](Cc3ccccc3)C(=O)O)s2)cc1` [compound #83, (2s)-4-(5-{[(1s-1-Carboxy-2-phenyl-ethyl)-(2,4-dichloro-benzoyl)-amino]-methyl}-thiophen-2-yl)-benzoic acid], the half-inhibitory concentration (IC50) was less than 5 µM. As to `COC(=O)c1ccc(-c2ccc(CN(C(=O)c3ccc(Cl)cc3Cl)[C@@H](Cc3ccccc3)C(=O)O)s2)cc1` [compound #84, (2s)-4-(5-{[(1-Carboxy-2-phenyl-ethyl)-(2,4-dichloro-benzoyl)-amino]-methyl}-thiophen-2-yl)-benzoic acid methyl ester], the half-inhibitory concentration (IC50) is less than 5 µM.

Take `O=C(O)[C@H](Cc1ccccc1)N(Cc1cc(-c2ccc(Cl)c(Cl)c2)cs1)C(=O)c1ccc(Cl)cc1Cl` [compound #87, (2s)-2-{(2,4-Dichloro-benzoyl)-[4-(3,4-dichloro-phenyl)-thiophen-2-ylmethyl]-amino}-3-phenyl-propionic acid]: the IC50 was less than 5 µM. Regarding `O=C(O)[C@H](Cc1ccccc1)N(Cc1cc(-c2ccc(Cl)c(F)c2)cs1)C(=O)c1ccc(Cl)cc1Cl` [compound #88, (2s)-2-[[4-(4-Chloro-3-fluoro-phenyl)-thiophen-2-ylmethyl]-(2,4-dichloro-benzoyl)-amino]-3-phenyl-propionic acid], the IC50 is less than 5 µM. As for `O=C(O)[C@H](Cc1ccccc1)N(Cc1cc(-c2ccc(F)c(Cl)c2)cs1)C(=O)c1ccc(Cl)cc1Cl` [compound #89, (2s)-2-[[4-(3-Chloro-4-fluoro-phenyl)-thiophen-2-ylmethyl]-(2,4-dichloro-benzoyl)-amino]-3-phenyl-propionic acid], the 50% inhibitory concentration (IC50) was less than 5 µM. The same measure, in the same setting: the figure for `O=C(O)[C@H](Cc1ccccc1)N(Cc1cc(-c2ccc(Cl)cc2Cl)cs1)C(=O)c1ccc(Cl)cc1Cl` [compound #90, (2s) -2-{(2,4-Dichloro-benzoyl)-[4-(2,4-dichloro-phenyl)-thiophen-2-ylmethyl]-amino}-3-phenyl-propionic acid] is less than 5 µM; for `O=C(O)[C@H](Cc1ccccc1)N(Cc1ccc(-c2ccc(F)c(Cl)c2)s1)C(=O)c1ccc(Cl)cc1Cl` [compound #91, (2s)-2-[[5-(3-Chloro-4-fluoro-phenyl)-thiophen-2-ylmethyl]-(2,4-dichloro-benzoyl)-amino]-3-phenyl-propionic acid] it is less than 5 µM; for `O=C(O)[C@H](Cc1ccccc1)N(Cc1ccc(-c2ccc(Cl)c(F)c2)s1)C(=O)c1ccc(Cl)cc1Cl` [compound #92, (2s)-2-[[5-(4-chloro-3-fluoro-phenyl)-thiophen-2-ylmethyl]-(2,4-dichloro-benzoyl)-amino]-3-phenyl-propionic acid] it is less than 5 µM.

For `O=C(O)[C@H](Cc1ccccc1)N(Cc1ccc(-c2ccc(Cl)cc2Cl)s1)C(=O)c1ccc(Cl)cc1Cl` [compound #93, (2s)-2-{(2,4-Dichloro-benzoyl)-[5-(2,4-dichloro-phenyl)-thiophen-2-ylmethyl]-amino}-3-phenyl-propionic acid], the IC50 was less than 5 µM. On the same count and under the same terms, as for `O=C(O)[C@H](Cc1ccccc1)N(Cc1ccc(-c2nccs2)s1)C(=O)c1ccc(Cl)cc1Cl` [compound #94, (2s)-2-[(2,4-Dichloro-benzoyl)-(5-thiazol-2-yl-thiophen-2-ylmethyl)-amino]-3-phenyl-propionic acid], the figure is less than 5 µM. Same read-out and setting: the figure for `O=C(O)[C@H](Cc1ccccc1)N(Cc1ccc(-c2cc(F)cc(F)c2)s1)C(=O)c1ccc(Cl)cc1Cl` [compound #95, (2s)-2-{(2,4-Dichloro-benzoyl)-[5-(3,5-difluoro-phenyl)-thiophen-2-ylmethyl]-amino}-3-phenyl-propionic acid] is less than 5 µM; for `COc1cccc(-c2ccc(CN(C(=O)c3ccc(Cl)cc3Cl)[C@@H](Cc3ccccc3)C(=O)O)s2)c1` [compound #96, (2s)-2-{(2,4-Dichloro-benzoyl)-[5-(3-methoxy-phenyl)-thiophen-2-ylmethyl]-amino}-3-phenyl-propionic acid] it is less than 5 µM. In the case of `O=C(O)[C@H](Cc1ccccc1)N(Cc1ccc(-c2cccc(F)c2)s1)C(=O)c1ccc(Cl)cc1Cl` [compound #97, (2s)-2-{(2,4-Dichloro-benzoyl)-[5-(3-fluoro-phenyl)-thiophen-2-ylmethyl]-amino}-3-phenyl-propionic acid], the IC50 was less than 5 µM.

`O=C(O)[C@H](Cc1ccccc1)N(Cc1cccs1)C(=O)c1ccc(Cl)cc1Cl` [compound #98, (2s)-2-[(2,4-Dichloro-benzoyl)-thiophen-2-ylmethyl-amino]-3-phenyl-propionic acid]: the half-maximal inhibitory concentration (IC50) was less than 5 µM.

On to `O=C(O)[C@H](Cc1ccccc1)N(Cc1cc(Br)cs1)C(=O)c1ccc(Cl)cc1Cl` [compound #99, (2s)-2-[(4-Bromo-thiophen-2-ylmethyl)-(2,4-dichloro-benzoyl)-amino]-3-phenyl-propionic acid], for which the IC50 is less than 5 µM. Same read-out and setting: the figure for `O=C(O)[C@H](Cc1ccccc1)N(Cc1cnc(N2CCN(c3ccccc3)CC2)s1)C(=O)c1ccc(Cl)cc1Cl` [compound #100, (2s)-2-{(2,4-Dichloro-benzoyl)-[2-(4-phenyl-piperazin-1-yl)-thiazol-5-ylmethyl]-amino}-3-phenyl-propionic acid] is 5 to 20 µM. `O=C(O)[C@H](Cc1ccccc1)N(Cc1cnc(N2CCN(Cc3ccccc3)CC2)s1)C(=O)c1ccc(Cl)cc1Cl` [compound #102, (2s)-2-[[2-(4-Benzyl-piperazin-1-yl)-thiazol-5-ylmethyl]-(2,4-dichloro-benzoyl)-amino]-3-phenyl-propionic acid]: the 50% inhibitory concentration (IC50) is less than 5 µM. Turning to `O=C(O)[C@H](Cc1ccccc1)N(Cc1cnc(N2CCCCC2)s1)C(=O)c1ccc(Cl)cc1Cl` [compound #103, (2s)-2-[(2,4-Dichloro-benzoyl)-(2-piperidin-1-yl-thiazol-5-ylmethyl)-amino]-3-phenyl-propionic acid], the 50% inhibitory concentration (IC50) was less than 5 µM.

With `CCN(CC)c1ncc(CN(C(=O)c2ccc(Cl)cc2Cl)[C@@H](Cc2ccccc2)C(=O)O)s1` [compound #104, (2s)-2-[(2,4-Dichloro-benzoyl)-(2-diethylamino-thiazol-5-ylmethyl)-amino]-3-phenyl-propionic acid], the 50% inhibitory concentration (IC50) was less than 5 µM. On to `COc1cc(C)c(S(=O)(=O)N(Cc2c(C(=O)c3ccc(Cl)cc3)oc3ccccc23)[C@@H](Cc2ccccc2)C(=O)O)c(C)c1C` [compound #105, (2s)-2-[[2-(4-Chloro-benzoyl)-benzofuran-3-ylmethyl]-(4-methoxy-2,3,6-trimethyl-benzenesulfonyl)-amino]-3-phenyl-propionic acid], for which the half-inhibitory concentration (IC50) was in the range of 5 to 20 µM. On the same count and under the same terms, as for `COc1cc(C)c(S(=O)(=O)N(Cc2c(C(F)(F)F)nn(C)c2Oc2ccc(Cl)cc2Cl)[C@@H](Cc2ccccc2)C(=O)O)c(C)c1C` [compound #106, (2s)-2-[[5-(2,4-Dichloro-phenoxy)-1-methyl-3-trifluoromethyl-1h-pyrazol-4-ylmethyl]-(4-methoxy-2,3,6-trimethyl-benzenesulfonyl)-amino]-3-phenyl-propionic acid], the figure is 5 to 20 µM; as for `O=C(CN(C(=O)c1ccc(Cl)cc1Cl)[C@@H](Cc1ccccc1)C(=O)O)c1ccc(-c2ccc(Cl)cc2Cl)o1` [compound #107, (2s)-2-((2,4-Dichloro-benzoyl)-{2-[5-(2,4-dichloro-phenyl)-furan-2-yl]-2-oxo-ethyl}-amino)-3-phenyl-propionic acid], less than 5 µM. Still for that read-out and setting: the figure for `C=CCN(C(=O)c1ccc(Cl)cc1Cl)[C@@H](Cc1ccccc1)C(=O)O` [compound #109, (2s)-2-[Allyl-(2,4-dichloro-benzoyl)-amino]-3-phenyl-propionic acid] is 5 to 20 µM; for `CN(C(=O)c1ccc(Cl)cc1Cl)[C@@H](Cc1ccccc1)C(=O)O` [compound #110, (2s)-2-[(2,4-Dichloro-benzoyl)-methyl-amino]-3-phenyl-propionic acid] it is 5 to 20 µM; for `C#CCN(C(=O)c1ccc(Cl)cc1Cl)[C@@H](Cc1ccccc1)C(=O)O` [compound #111, (2s)-2-[(2,4-Dichloro-benzoyl)-prop-2-ynyl-amino]-3-phenyl-propionic acid] it is 5 to 20 µM. On the same count and under the same terms, the figure for `CCCN(C(=O)c1ccc(Cl)cc1Cl)[C@@H](Cc1ccccc1)C(=O)O` [compound #112, (2s)-2-[(2,4-Dichloro-benzoyl)-propyl-amino]-3-phenyl-propionic acid] is greater than 20 µM.

As for `O=C(O)[C@H](Cc1ccccc1)N(CC#Cc1cc2ccccc2o1)C(=O)c1ccc(Cl)cc1Cl` [compound #113, (2s)-2-[(3-Benzofuran-2-yl-prop-2-ynyl)-(2,4-dichloro-benzoyl)-amino]-3-phenyl-propionic acid], the IC50 was less than 5 µM. With `O=C(O)[C@H](Cc1ccccc1)N(C(=O)c1ccc(Cl)cc1Cl)c1ccc(-c2cc3ccccc3o2)cc1` [compound #114, (2s)-2-[(4-Benzofuran-2-yl-phenyl)-(2,4-dichloro-benzoyl)-amino]-3-phenyl-propionic acid], the concentration for half-maximal inhibition (IC50) was less than 5 µM. The same measure, in the same setting: as for `CC(C)=CCN(C(=O)c1ccc(Cl)cc1Cl)[C@@H](Cc1ccccc1)C(=O)O` [compound #115, (2s)-2-[(2,4-Dichloro-benzoyl)-(3-methyl-but-2-enyl)-amino]-3-phenyl-propionic acid], the figure is 5 to 20 µM.
